Eight compounds from PubChem BioAssay (NCI) can be followed below.

The structures appear in SMILES notation.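 How tested: cells in 96-well plates exposed to compound for 48 hours at five concentrations. GI50 is the concentration that inhibits growth by half. Definition used: TGI = concentration required for complete inhibition of growth.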

Some test systems named below: HCT-116 colon; ACHN renal; BT-549 breast; SF-539 CNS; NCI-H460 lung; CAKI-1 renal; COLO 205 colon; SW-620 colon; SF-295 CNS; NCI-H522 lung.
What all share (experiment): NCI-60 cell line screen, 48 h

Take `Nc1nc(-c2ccc3c(c2)/C(=C\c2cc(Br)c(O)c(Br)c2)C(=O)N3)cs1`: the GI50 is 12.9 µM in the assay with HCT-116 colon; more than 23.9 µM in the assay with ACHN renal; 11.4 µM in the assay with BT-549 breast; 11.9 µM in the assay with SF-539 CNS; 16.4 µM in the assay on NCI-H460 lung; more than 25 µM with CAKI-1 renal. Moreover, the GI50 was 15.1 µM in the assay with COLO 205 colon, 10.6 µM in the assay with SW-620 colon, 10.1 µM in the assay with SF-295 CNS and 8.12 µM in the assay with NCI-H522 lung. The TGI is more than 25 µM with HCT-116 colon; more than 25 µM in the assay on ACHN renal; more than 23.8 µM with BT-549 breast; more than 25 µM in the assay on SF-539 CNS; more than 25 µM in the assay with NCI-H460 lung; more than 25 µM in the assay with CAKI-1 renal. Besides, the TGI in the assay with COLO 205 colon was more than 25 µM; with SW-620 colon, more than 25 µM; in the assay with SF-295 CNS, more than 25 µM; in the assay with NCI-H522 lung, 19.4 µM.

`Cc1ccc2ccccc2c1CSc1nc(N)nc2c1ncn2CC(C)C`: the TGI with HCT-116 colon was more than 100 µM; with ACHN renal, more than 100 µM; in the assay on BT-549 breast, more than 100 µM; in the assay with SF-539 CNS, more than 44.8 µM; in the assay on NCI-H460 lung, more than 96.2 µM; in the assay with CAKI-1 renal, more than 48.9 µM. Further, the TGI is 20.2 µM in the assay with COLO 205 colon, more than 100 µM in the assay on SW-620 colon, more than 100 µM in the assay on SF-295 CNS and 96.9 µM with NCI-H522 lung.

Turning to `C=CCc1c(O)c(C(=O)/C=C/c2ccc(Cl)cc2)c(OC)c2ccoc12`, the GI50 is 2.74 µM in the assay with HCT-116 colon; 2.31 µM with ACHN renal; 3 µM in the assay with BT-549 breast; 1.79 µM in the assay with SF-539 CNS; 3.2 µM in the assay on NCI-H460 lung; 2.61 µM in the assay on CAKI-1 renal. In addition, the GI50 in the assay with COLO 205 colon is 4.44 µM; in the assay with SW-620 colon, 2.56 µM; in the assay on SF-295 CNS, 2.77 µM; in the assay with NCI-H522 lung, 1.88 µM. The TGI was 9 µM with HCT-116 colon; 6.17 µM in the assay on ACHN renal; 11 µM in the assay with BT-549 breast; 3.85 µM in the assay on SF-539 CNS; 12.1 µM with NCI-H460 lung; 11.6 µM in the assay on CAKI-1 renal. For the same compound, the TGI with COLO 205 colon came to 15.5 µM; in the assay on SW-620 colon, 6.86 µM; with SF-295 CNS, 9.56 µM; in the assay on NCI-H522 lung it was 5.71 µM.

As for `CCN(CC)CCOc1nc2ccccc2c2c1-c1ccc(OC)cc1C2=O`, the GI50 in the assay on HCT-116 colon is 0.331 µM; with ACHN renal, 0.364 µM; in the assay on BT-549 breast it was 3.29 µM; in the assay with SF-539 CNS, 1.34 µM; in the assay with NCI-H460 lung, 0.317 µM; in the assay with CAKI-1 renal, 0.486 µM. Moreover, the GI50 in the assay with COLO 205 colon was 0.49 µM; with SW-620 colon, 0.282 µM; in the assay on SF-295 CNS, 1.91 µM; in the assay with NCI-H522 lung, 0.613 µM. Also, the TGI with HCT-116 colon came to 1.55 µM; in the assay on ACHN renal, 2.02 µM; in the assay with BT-549 breast it was 13.8 µM; in the assay with SF-539 CNS it was 4.25 µM; in the assay on NCI-H460 lung it was 1.3 µM; in the assay on CAKI-1 renal, 3.66 µM. The TGI amounted to 1.88 µM in the assay with COLO 205 colon, 1.58 µM in the assay with SW-620 colon, 12.4 µM with SF-295 CNS and 2.4 µM in the assay with NCI-H522 lung.

In the case of `O=[N+]([O-])c1ccc2c(c1)C(N1CCN(CCO)CC1)Cc1ccc(F)cc1S2` (stereo not given), the TGI with HCT-116 colon is 19.7 µM; with ACHN renal it was 16.7 µM; with BT-549 breast, 23.1 µM; in the assay on SF-539 CNS, 22.6 µM; in the assay with NCI-H460 lung, 27.3 µM; with CAKI-1 renal, 26.3 µM. Moreover, the TGI in the assay on COLO 205 colon came out at 28.7 µM; in the assay with SW-620 colon it was 19.3 µM; in the assay with SF-295 CNS it was 14.1 µM; with NCI-H522 lung it was 18.3 µM.

For the compound `CN1C(=O)N(C)C2C1NC(=S)N2/N=C/C=C/c1ccccc1[N+](=O)[O-]` (stereo not given), the GI50 was 0.634 µM in the assay with HCT-116 colon; 0.988 µM in the assay with ACHN renal; 3.34 µM with BT-549 breast; 0.537 µM in the assay with SF-539 CNS; 0.701 µM in the assay on NCI-H460 lung; 1.46 µM in the assay with CAKI-1 renal. Further, the GI50 was 1.23 µM in the assay with COLO 205 colon, 0.596 µM in the assay with SW-620 colon, 0.625 µM with SF-295 CNS and 0.318 µM in the assay with NCI-H522 lung. Further, the TGI is more than 100 µM in the assay with HCT-116 colon; more than 100 µM in the assay with ACHN renal; more than 100 µM in the assay on BT-549 breast; 8.44 µM in the assay on SF-539 CNS; more than 100 µM in the assay on NCI-H460 lung; more than 100 µM in the assay with CAKI-1 renal. The TGI was 6.77 µM with COLO 205 colon, more than 100 µM in the assay with SW-620 colon, more than 100 µM with SF-295 CNS and 9.65 µM in the assay on NCI-H522 lung.

For `N#C/C(=C\c1ccc[nH]1)c1cc(-c2ccc(Cl)cc2)nn1-c1ccccc1`, the GI50 in the assay on HCT-116 colon was 3.28 µM; with ACHN renal, 5.55 µM; with BT-549 breast it was 4.72 µM; in the assay on SF-539 CNS it was 6.05 µM; in the assay on NCI-H460 lung, 3.43 µM; in the assay with CAKI-1 renal it was 3.16 µM. In addition, the GI50 with COLO 205 colon was 3.16 µM; in the assay with SW-620 colon, 3.75 µM; with SF-295 CNS, 2.8 µM; in the assay on NCI-H522 lung, 5.19 µM. For the same compound, the TGI is 12.8 µM in the assay with HCT-116 colon; 47.5 µM in the assay with ACHN renal; 15.7 µM with BT-549 breast; 18.9 µM in the assay on SF-539 CNS; 13.3 µM in the assay with NCI-H460 lung; more than 100 µM in the assay on CAKI-1 renal. Besides, the TGI is 8.17 µM with COLO 205 colon, more than 41.8 µM in the assay with SW-620 colon, 13 µM in the assay with SF-295 CNS and 29.4 µM in the assay with NCI-H522 lung.

Consider `Nc1ccc(C#Cc2ccccc2C#CCCCCO)cc1`, for which the GI50 with HCT-116 colon is 14.3 µM; in the assay on ACHN renal, 14.5 µM; with BT-549 breast, 16.3 µM; in the assay on SF-539 CNS, 17.6 µM; in the assay on NCI-H460 lung, 21.8 µM; with CAKI-1 renal, 20.9 µM. Also, the GI50 is 16.1 µM in the assay with COLO 205 colon, 17.6 µM with SW-620 colon, 22.3 µM with SF-295 CNS and 15.7 µM in the assay with NCI-H522 lung. Also, the TGI amounted to 28.2 µM with HCT-116 colon; 27.5 µM with ACHN renal; 34.8 µM with BT-549 breast; 33.9 µM in the assay with SF-539 CNS; 45.4 µM with NCI-H460 lung; 40.4 µM with CAKI-1 renal. Moreover, the TGI worked out at 30.1 µM in the assay with COLO 205 colon, 33.1 µM in the assay on SW-620 colon, 41.1 µM in the assay with SF-295 CNS and 29.5 µM with NCI-H522 lung.
